Results published in patent publication US9133207B2, “Tetrandrine derivatives with substituted 5-carbon, preparation method and use thereof” (Hangzhou Bensheng Pharmaceutical Co., Ltd., priority 2011, dated 2015).
Values after ≈ are worked out from the molar mass of the structure shown.

Legend:
[1] = system: H9 (acute lymphoblastic leukemia, ALL); assay: Leukemia cell growth inhibition, MTT, 72 h (Example 5); assay type: cell-based, human; conditions: Homo sapiens; 72 h, MTT
How it was run: (§1)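 An MTT read-out of viable cell concentration follows 72 h incubation (37° C, 5% CO2) of 6000 cells/well in 10% FBS-supplemented 1640 medium with the 5-substituted derivatives at varying concentrations.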

[2] = system: Jurkat (acute lymphoblastic leukemia, ALL); assay: as above; assay type: cell-based, human; conditions: Homo sapiens, Jurkat; 72 h, MTT
How it was run: as §1

[3] = system: K562/adr (drug-resistant, chronic myeloid leukemia, CML); assay: as above; assay type: cell-based, human; conditions: Homo sapiens, K562/Adr; 72 h, MTT
How it was run: as §1

[4] = system: Kasumi-1 (acute myeloid leukemia M2 type, AML-M2); assay: as above; assay type: cell-based, human; conditions: Homo sapiens, Kasumi 1
How it was run: as §1

[5] = system: NB4 (acute promyelocytic leukemia, AML); assay: as above; assay type: cell-based, human; conditions: Homo sapiens; 72 h, MTT
How it was run: as §1

[6] = system: RPMI8226 (multiple myeloma); assay: Multiple myeloma cell growth inhibition, MTT, 72 h (Example 6); assay type: cell-based, human; conditions: Homo sapiens, RPMI-8226; 72 h, MTT, RPMI8226
How it was run: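 Viability was read by MTT after 72 h of compound exposure at 37 °C, 5% CO2. Each well held 6000 RPMI8226 cells in 1640 medium containing 10% fetal bovine serum, with derivatives added at various concentrations.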

[7] = system: CaES-17 (esophageal cancer cell); assay: Solid tumor cell growth inhibition, MTT, 72 h (Example 7); assay type: cell-based, human; conditions: Homo sapiens, CaEs17; 72 h, MTT, CAES-17
How it was run: (§2)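 4000 cells/well; DMEM high glucose + 10% FBS; 37 °C, 5% CO2; 24 h pre-culture; tetrandrine derivatives, varied conc., 72 h; MTT readout; viability % vs untreated control = 100%.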

[8] = system: MG63 (osteosarcoma); assay: as above; assay type: cell-based, human; conditions: Homo sapiens; 72 h, MTT, MG-63
How it was run: as §2

[9] = system: PANC-1 (pancreatic cancer); assay: as above; assay type: cell-based, human; conditions: Homo sapiens; 72 h, MTT, PANC-1
How it was run: as §2

[10] = system: PC-3 (prostate cancer); assay: as above; assay type: cell-based, human; conditions: Homo sapiens; 72 h, MTT, PC-3
How it was run: as §2

[11] = system: A549 (human lung cancer); assay: as above; assay type: cell-based; conditions: Homo sapiens; 72 h, MTT, A549
How it was run: as §2

[12] = system: Becap37 (human breast cancer cell); assay: as above; assay type: cell-based; conditions: Homo sapiens; 72 h, MTT, Becap-37
How it was run: as §2

[13] = system: Huh7 (human liver cancer cell); assay: as above; assay type: cell-based; conditions: Homo sapiens; 72 h, MTT, Huh-7
How it was run: as §2

[14] = system: MGC 803 (human gastric cancer cell); assay: as above; assay type: cell-based; conditions: Homo sapiens
How it was run: as §2

[15] = system: RKO (human colon adenocarcinoma cell); assay: as above; assay type: cell-based; conditions: Homo sapiens; 72 h, MTT, RKO
How it was run: as §2

IC50 [1]	IC90 [1]	IC50 [2]	IC90 [2]	IC50 [3]	IC90 [3]	IC50 [4]	IC90 [4]	IC50 [5]	IC90 [5]	IC50 [6]	IC90 [6]	IC50 [7]	IC90 [7]	IC50 [8]	IC90 [8]	IC50 [9]	IC90 [9]	IC50 [10]	IC90 [10]	SMILES	further results
1.33 mg/L (≈ 1.79 µM)	2.97 mg/L (≈ 4 µM)	1.82 mg/L (≈ 2.45 µM)	9.94 mg/L (≈ 13.4 µM)	1.45 mg/L (≈ 1.95 µM)	5.7 mg/L (≈ 7.67 µM)	1.96 mg/L (≈ 2.64 µM)	7.37 mg/L (≈ 9.92 µM)	1.14 mg/L (≈ 1.53 µM)	4.78 mg/L (≈ 6.43 µM)	0.09 mg/L (≈ 0.121 µM)	1 mg/L (≈ 1.35 µM)	2.3 mg/L (≈ 3.1 µM)	14.5 mg/L (≈ 19.6 µM)	1.52 mg/L (≈ 2.05 µM)	4.06 mg/L (≈ 5.46 µM)	4.55 mg/L (≈ 6.12 µM)	13.9 mg/L (≈ 18.7 µM)	4.44 mg/L (≈ 5.98 µM)	8.36 mg/L (≈ 11.3 µM)	COc1ccc2cc1Oc1ccc(cc1)C[C@H]1c3cc(c(OC)cc3CCN1C)Oc1c(OC)c(OC)c(CNCc3cccnc3)c3c1[C@H](C2)N(C)CC3 [BS-TE-348]	IC50 [11]: 9.94 mg/L (≈ 13.4 µM); IC90 [11]: > 16 mg/L; IC50 [12]: 3.84 mg/L (≈ 5.17 µM); IC90 [12]: 13.6 mg/L (≈ 18.3 µM); IC50 [13]: 3.05 mg/L (≈ 4.11 µM); IC90 [13]: 8 mg/L (≈ 10.8 µM); IC50 [14]: 1.93 mg/L (≈ 2.6 µM); IC90 [14]: 5.53 mg/L (≈ 7.44 µM); IC50 [15]: 1.77 mg/L (≈ 2.38 µM); IC90 [15]: 3.83 mg/L (≈ 5.16 µM)
1.62 mg/L (≈ 2.03 µM)	2.75 mg/L (≈ 3.45 µM)	1.9 mg/L (≈ 2.38 µM)	5.27 mg/L (≈ 6.61 µM)	0.68 mg/L (≈ 0.853 µM)	2.38 mg/L (≈ 2.99 µM)	2.24 mg/L (≈ 2.81 µM)	6.95 mg/L (≈ 8.72 µM)	1.18 mg/L (≈ 1.48 µM)	3.06 mg/L (≈ 3.84 µM)	0.05 mg/L (≈ 0.0627 µM)	0.7 mg/L (≈ 0.878 µM)	2.09 mg/L (≈ 2.62 µM)	8.09 mg/L (≈ 10.2 µM)	1.15 mg/L (≈ 1.44 µM)	2.47 mg/L (≈ 3.1 µM)	2.84 mg/L (≈ 3.56 µM)	4.84 mg/L (≈ 6.07 µM)	2.72 mg/L (≈ 3.41 µM)	4.28 mg/L (≈ 5.37 µM)	COc1ccc2cc1Oc1ccc(cc1)C[C@H]1c3cc(c(OC)cc3CCN1C)Oc1c(OC)c(OC)c(CN3CCN(c4ccccc4)CC3)c3c1[C@H](C2)N(C)CC3 [BS-TE-343]	IC50 [11]: 3.54 mg/L (≈ 4.44 µM); IC90 [11]: 12 mg/L (≈ 15 µM); IC50 [12]: 6.96 mg/L (≈ 8.73 µM); IC90 [12]: 8.17 mg/L (≈ 10.3 µM); IC50 [13]: 2.14 mg/L (≈ 2.69 µM); IC90 [13]: 4.85 mg/L (≈ 6.09 µM); IC50 [14]: 1.1 mg/L (≈ 1.38 µM); IC90 [14]: 2.88 mg/L (≈ 3.61 µM); IC50 [15]: 2.25 mg/L (≈ 2.82 µM); IC90 [15]: 3.24 mg/L (≈ 4.07 µM)
1.7 mg/L (≈ 2.31 µM)	4.68 mg/L (≈ 6.36 µM)	3.91 mg/L (≈ 5.31 µM)	12.7 mg/L (≈ 17.3 µM)	3.54 mg/L (≈ 4.81 µM)	12.4 mg/L (≈ 16.8 µM)	1.76 mg/L (≈ 2.39 µM)	8.69 mg/L (≈ 11.8 µM)	1.43 mg/L (≈ 1.94 µM)	6.61 mg/L (≈ 8.98 µM)	0.28 mg/L (≈ 0.38 µM)	0.76 mg/L (≈ 1.03 µM)	3.43 mg/L (≈ 4.66 µM)	27.4 mg/L (≈ 37.3 µM)	1.38 mg/L (≈ 1.88 µM)	4.84 mg/L (≈ 6.58 µM)	6.54 mg/L (≈ 8.89 µM)	14.7 mg/L (≈ 19.9 µM)	5.39 mg/L (≈ 7.32 µM)	8.99 mg/L (≈ 12.2 µM)	COc1ccc2cc1Oc1ccc(cc1)C[C@H]1c3cc(c(OC)cc3CCN1C)Oc1c(OC)c(OC)c(CN3CCC(O)CC3)c3c1[C@H](C2)N(C)CC3 [BS-TE-308]	IC50 [11]: 2.79 mg/L (≈ 3.79 µM); IC90 [11]: 11.2 mg/L (≈ 15.2 µM); IC50 [12]: 4.76 mg/L (≈ 6.47 µM); IC90 [12]: 11.5 mg/L (≈ 15.6 µM); IC50 [13]: 3.1 mg/L (≈ 4.21 µM); IC90 [13]: 4.95 mg/L (≈ 6.73 µM); IC50 [14]: 4.44 mg/L (≈ 6.03 µM); IC90 [14]: 23 mg/L (≈ 31.3 µM); IC50 [15]: 1.77 mg/L (≈ 2.41 µM); IC90 [15]: 4.03 mg/L (≈ 5.48 µM)
1.3 mg/L (≈ 1.7 µM)	2.4 mg/L (≈ 3.14 µM)	1.88 mg/L (≈ 2.46 µM)	7.85 mg/L (≈ 10.3 µM)	1.49 mg/L (≈ 1.95 µM)	5.99 mg/L (≈ 7.83 µM)	1.06 mg/L (≈ 1.39 µM)	3.64 mg/L (≈ 4.76 µM)	> 16 mg/L	> 16 mg/L	0.05 mg/L (≈ 0.0654 µM)	1.11 mg/L (≈ 1.45 µM)	2.35 mg/L (≈ 3.07 µM)	21.5 mg/L (≈ 28.1 µM)	0.84 mg/L (≈ 1.1 µM)	2.44 mg/L (≈ 3.19 µM)	3.99 mg/L (≈ 5.22 µM)	11 mg/L (≈ 14.4 µM)	3.35 mg/L (≈ 4.38 µM)	6.05 mg/L (≈ 7.91 µM)	COc1ccc2cc1Oc1ccc(cc1)C[C@H]1c3cc(c(OC)cc3CCN1C)Oc1c(OC)c(OC)c(CN3CCN(CCO)CC3)c3c1[C@H](C2)N(C)CC3 [BS-TE-334]	IC50 [11]: 4 mg/L (≈ 5.23 µM); IC90 [11]: 14.6 mg/L (≈ 19.1 µM); IC50 [12]: 3.09 mg/L (≈ 4.04 µM); IC90 [12]: 8.39 mg/L (≈ 11 µM); IC50 [13]: 2.55 mg/L (≈ 3.33 µM); IC90 [13]: 4.38 mg/L (≈ 5.73 µM); IC50 [14]: 2.22 mg/L (≈ 2.9 µM); IC90 [14]: 10 mg/L (≈ 13.1 µM); IC50 [15]: 0.82 mg/L (≈ 1.07 µM); IC90 [15]: 2.04 mg/L (≈ 2.67 µM)
